In patent US20240165112A1, “THERAPY FOR THE TREATMENT OF CANCER” (Bristol-Myers Squibb Company, priority 2022, published 2024):

Experiments:
Test in all cases: 3D clonogenic assay in patient derived organoids
Type in all cases: cell-based, human
Settings in all cases: 8 to 13 days
[1] = test system: CXF1256 organoid, colon cancer
Protocol: (§1) Five tumor cell lines (4T1.2, A549, EMT6, NCI-H460, and HT29) were treated with a range of paclitaxel or 5-FU concentrations in the presence of dimethlylsulfoxide (DMSO), 5 μM Compound 1, or 20 μM Compound 1. Cells were imaged 4 days after treatment and percent confluence was assessed by image quantification. EC50 values for cell confluence were used to assess chemotherapy potency. Eleven patient-derived tumor organoids (MAXFTN449, MAXFTN2990, PAXF1657, PAXF2131, CXF1256, CXF2129, CXF2061, LXFE2478, LXFE690, LXFA677, LXFA644) were seeded in a 3D matrix and treated with a range of paclitaxel, 5-FU, SN38, Gemcitabine, oxaliplatin, and carboplatin concentrations in the presence of DMSO, 5 μM Compound 1, or 20 μM Compound 1. After 8 to 13 days in culture, colonies were stained, imaged, and counted. A dose response curve was generated for chemotherapy alone or chemotherapy in combination with 5 or 20 μM Compound 1. Combination activity was defined as a percentage of the area under the chemotherapy dose response curve (cAUC) for Compound 1 combination groups compared to the cAUC of chemotherapy alone.
(§2) For combination experiments, working stock solutions of all compounds were prepared in DMSO at concentrations of 660-fold the highest test concentration used and stored at −20° C. Platin compounds were prepared freshly on each treatment day. On each day of an experiment, an aliquot of the working stock solutions was used and stored at room temperature prior to and during treatment. First, 1:2 dilutions of 660-fold concentrated working stocks were prepared in DMSO (in case of monotherapy controls), or equal amounts of the compound working stocks were mixed (in case of drug combinations). Then, different dilutions of these 330-fold concentrated solutions were prepared in DMSO to give an 8×2 matrix combination layout with conditions. The DMSO dilutions were further diluted […] into cell culture medium (IMDM, supplemented with 20% (v/v) fetal bovine serum, and 50 μg/mL gentamicin) in an intermediate dilution plate. Finally, 10 μL taken from the intermediate dilution plate were transferred to 140 μL of cells and medium per well of the final assay plate. Thus, the DMSO dilutions used for the mono- and the combination-treatment were diluted 1:660, and the DMSO concentration in the assay was […].
(§3) Tumors were passaged as subcutaneous xenografts in NMRI nu/nu mice. At a tumor volume of 400 to 1000 mm^3, tumor-bearing mice were euthanized, and tumors were collected under sterile conditions without delay. Tumors were mechanically disaggregated and subsequently incubated with an enzyme cocktail consisting of collagenase type IV (41 U/mL), DNase I (125 U/mL), hyaluronidase type III (100 U/mL), and dispase II (1 U/mL) in RPMI 1640 medium at 37° C. for 60 to 120 minutes. Cells were passed through sieves of 100 μm and 40 μm mesh size, and washed with RPMI 1640 medium. The percentage of viable cells was determined in a Neubauer-hemocytometer using trypan blue exclusion. Aliquots of the cells were frozen down and stored in liquid nitrogen vapor phase. On each day of an experiment, a frozen aliquot of tumor cells was thawed and used for preparation of assay plates.
(§4) The clonogenic assay was carried out in a 96 well plate format using ultra low attachment plates. For each test, plates were prepared as follows: each test well contained a layer of semi-solid medium with tumor cells (50 μL), and a second layer of medium supernatant with or without test compound (100 μL). The cell layer consisted of […] to 12.5×10^3 tumor cells per well, which were seeded in 50 μL/well cell culture medium (IMDM, supplemented with 20% (v/v) fetal bovine serum, 50 μg/mL gentamicin, and 0.4% (w/v) agar). After 24 hours, the soft-agar layer was covered with 90 μL of the same culture medium without agar, and 10 μL of control medium or test compound after serial dilution in DMSO for the duration of the experiment (continuous exposure, 100 μL drug overlay).

[2] = test system: MAXFTN2990 organoid, breast cancer (triple negative)
Protocol: as §1, §2, §3, §4

[3] = test system: CXF2061 organoid, colon cancer
Protocol: as §1, §2, §3, §4

[4] = test system: LXFE690 organoid, NSCLC (squamous subtype)
Protocol: as §1, §2, §3, §4

[5] = test system: PAXF2131 organoid, Pancreatic cancer
Protocol: as §1, §2, §3, §4

[6] = test system: LXFE2478 organoid, NSCLC (squamous subtype)
Protocol: as §1, §2, §3, §4

[7] = test system: LXFA677 organoid, NSCLC (adenocarcinoma subtype)
Protocol: as §1, §2, §3, §4

[8] = test system: MAXFTN449 organoid, breast cancer (triple negative)
Protocol: as §1, §2, §3, §4

[9] = test system: LXFA644 organoid, NSCLC (adenocarcinoma subtype)
Protocol: as §1, §2, §3, §4

[10] = test system: PAXF1657 organoid, pancreatic cancer
Protocol: as §1, §2, §3, §4

[11] = test system: CXF2129 organoid, colon cancer
Protocol: as §1, §2, §3, §4

C[C@@H]1CC[C@@H](Nc2nc(NC(C)(C)C)ncc2C(N)=O)C[C@H]1O [Compound 1, 2-(tert-butylamino)-4-((1R,3R,4R)-3-hydroxy-4-methylcyclohexylamino)-pyrimidine-5-carboxamide]
% Reduction in Colony Formation with Compound 1 compared with DMSO, Mean ([1]; Compound 1, 5 μM): 90%
% Reduction in Colony Formation with Compound 1 compared with DMSO, Mean ([1]; Compound 1, 20 μM): 92%
% Reduction in Colony Formation with Compound 1 compared with DMSO, Mean ([2]; Compound 1, 5 μM): −8%
% Reduction in Colony Formation with Compound 1 compared with DMSO, Mean ([2]; Compound 1, 20 μM): 34%
% Reduction in Colony Formation with Compound 1 compared with DMSO, Mean ([3]; Compound 1, 5 μM): 8%
% Reduction in Colony Formation with Compound 1 compared with DMSO, Mean ([3]; Compound 1, 20 μM): 9%
% Reduction in Colony Formation with Compound 1 compared with DMSO, Mean ([4]; Compound 1, 5 μM): 73%
% Reduction in Colony Formation with Compound 1 compared with DMSO, Mean ([4]; Compound 1, 20 μM): 79%
% Reduction in Colony Formation with Compound 1 compared with DMSO, Mean ([5]; Compound 1, 5 μM): 62%
% Reduction in Colony Formation with Compound 1 compared with DMSO, Mean ([5]; Compound 1, 20 μM): 68%
% Reduction in Colony Formation with Compound 1 compared with DMSO, Mean ([6]; Compound 1, 5 μM): 39%
% Reduction in Colony Formation with Compound 1 compared with DMSO, Mean ([6]; Compound 1, 20 μM): 28%
% Reduction in Colony Formation with Compound 1 compared with DMSO, Mean ([7]; Compound 1, 5 μM): 27%
% Reduction in Colony Formation with Compound 1 compared with DMSO, Mean ([7]; Compound 1, 20 μM): 32%
% Reduction in Colony Formation with Compound 1 compared with DMSO, Mean ([8]; Compound 1, 5 μM): 56%
% Reduction in Colony Formation with Compound 1 compared with DMSO, Mean ([8]; Compound 1, 20 μM): 54%
% Reduction in Colony Formation with Compound 1 compared with DMSO, Mean ([9]; Compound 1, 5 μM): 12%
% Reduction in Colony Formation with Compound 1 compared with DMSO, Mean ([9]; Compound 1, 20 μM): 24%
% Reduction in Colony Formation with Compound 1 compared with DMSO, Mean ([10]; Compound 1, 5 μM): 31%
% Reduction in Colony Formation with Compound 1 compared with DMSO, Mean ([10]; Compound 1, 20 μM): 27%
% Reduction in Colony Formation with Compound 1 compared with DMSO, Mean ([11]; Compound 1, 5 μM): 56%
% Reduction in Colony Formation with Compound 1 compared with DMSO, Mean ([11]; Compound 1, 20 μM): 49%
